{
  "source": "patent US4845221A",
  "about": "“Serotonergic substituted piperazinyl tetralins” (American Home Products Corporation, priority 1988, dated 1989)",
  "key": {"[1]": {"tested_on": "5-HT1A serotonin receptor", "conditions": "cited from earlier work"}, "[2]": {"tested_on": "5-HT1A (a serotonin receptor subtype)", "conditions": "Middlemiss et al., European J. of Pharmacol. 90 151 (1983); cited from earlier work"}, "D-2 dopamine receptor": {"tested_on": "D-2 dopamine receptor", "experiment": "inhibition of 3H-spiroperidol binding, homogenized limbic brain tissue (D-2 dopamine receptor affinity)", "conditions": "for % Inhibition 1 μM D-2: 3H-spiroperidol, limbic brain tissue", "method": "The relatively low D-2 dopamine receptor affinity of the compounds of this invention was established by a modification of the procedure of Fields et al., Brain Res., 136, pp. 578-584 (1977) and Yamamura et al., eds. Neurotransmitter Receptor Binding, Raven Press, N.Y. (1978), wherein homogenized limbic brain tissue is incubated with ^3 H-spiroperidol and various concentrations of test compound, filtered, washed and shaken with Hydrofluor scintillation cocktail (National Diagnostics) and counted in a Packard 460 CD scintillation counter."}, "[3]": {"molecular_target": "T1, 5-HT-1A serotonin receptor (Rattus norvegicus, UniProt P19327)", "T1 construct": "44: 1685-1696, 1985; from tissue", "T1 sequence (P19327 1-422)": "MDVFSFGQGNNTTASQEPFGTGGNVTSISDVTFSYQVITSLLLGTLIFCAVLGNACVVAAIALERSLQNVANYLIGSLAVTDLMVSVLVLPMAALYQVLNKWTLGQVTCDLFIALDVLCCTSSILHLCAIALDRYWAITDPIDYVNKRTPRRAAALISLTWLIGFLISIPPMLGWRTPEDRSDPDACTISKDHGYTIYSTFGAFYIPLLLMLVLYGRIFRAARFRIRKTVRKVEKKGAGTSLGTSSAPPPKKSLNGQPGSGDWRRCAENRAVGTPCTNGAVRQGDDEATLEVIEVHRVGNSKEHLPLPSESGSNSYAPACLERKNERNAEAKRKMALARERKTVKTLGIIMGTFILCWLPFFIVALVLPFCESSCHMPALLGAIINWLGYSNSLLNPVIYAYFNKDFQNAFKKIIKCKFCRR", "experiment": "displacement of [3H]8-OH DPAT from the 5-HT-1A serotonin receptor", "format": "binding", "conditions": "for inhibition at 1 µM / Ki: [3H]8-OH DPAT; for inhibition at 1 µM: read-out: % Inhibition 1 μm 5 HT1A; for Ki: in parentheses after % inhibition, read-out: Ki 5 HT1A; for selectivity / separation of 5-HT1A vs D-2 binding (in words): 5-HT1A relative to D-2", "source_text": "The serotonergic properties of the compounds of this invention were established by standard pharmacologically accepted procedures involving the measurement of the compound's ability to displace [^3 H]8-OH DPAT (dipropylaminotetralin) from the 5-HT-1A serotonin receptor by the procedure of Hall et al., J. Neurochem. 44: 1685-1696, 1985."}},
  "note": "“Also recorded” adds a separate entry of the source.",
  "data": [
    {"compound": "CCCN(CCC)C1CCc2cccc(O)c2C1", "note": "(stereo not shown) [8-OH DPAT, 8-hydroxy-2-(di-n-propylamino)-tetralin]", "values": [
      {"measurement": "5-HT1A receptor affinity of known agents (in words)", "setting": "[1]", "value": "selective 5-HT1A serotonin receptor affinity"},
      {"measurement": "5-HT1A agonist activity (in words)", "setting": "[2]", "value": "selective 5-HT1A (a serotonin receptor subtype) agonist activity"}
    ]},
    {"compound": "COc1cccc2c1CC(N1CCN(c3cccc(C(F)(F)F)c3)CC1)CC2", "note": "(stereo not shown) [Compound 1, 1-(1,2,3,4-tetrahydro-8-methoxy-2-naphthalenyl)-4-[3-(trifluoromethyl)phenyl]piperazine]", "values": [
      {"measurement": "% Inhibition 1 μM D-2", "setting": "D-2 dopamine receptor", "value": 5, "unit": "%"},
      {"measurement": "inhibition at 1 µM", "setting": "[3]", "value": 97, "unit": "%"},
      {"measurement": "Ki", "setting": "[3]", "value": 11, "unit": "nM"}
    ]},
    {"compound": "Oc1cccc2c1CC(N1CCN(c3cccc(C(F)(F)F)c3)CC1)CC2", "note": "(stereo not shown) [Compound 2, 1-(1,2,3,4-tetrahydro-8-hydroxy-2-naphthalenyl)-4-[3-(trifluromethyl)phenyl]piperazine]", "values": [
      {"measurement": "% Inhibition 1 μM D-2", "setting": "D-2 dopamine receptor", "value": 46, "unit": "%"},
      {"measurement": "inhibition at 1 µM", "setting": "[3]", "value": 100, "unit": "%"},
      {"measurement": "Ki", "setting": "[3]", "value": 14, "unit": "nM"}
    ]},
    {"compound": "COc1cccc2c1CC(N1CCN(c3ncccn3)CC1)CC2", "note": "(stereo not shown) [Compound 3, 2-[4-(1,2,3,4-tetrahydro-8-methoxy-2-naphthalenyl)-1-piperazinyl]pyrimidine]", "values": [
      {"measurement": "% Inhibition 1 μM D-2", "setting": "D-2 dopamine receptor", "value": 3, "unit": "%"},
      {"measurement": "inhibition at 1 µM", "setting": "[3]", "value": 84.6, "unit": "%"},
      {"measurement": "Ki", "setting": "[3]", "value": 63, "unit": "nM"}
    ]},
    {"compound": "Oc1cccc2c1CC(N1CCN(c3ncccn3)CC1)CC2", "note": "(stereo not shown) [Compound 4, 2-[4-(1,2,3,4-tetrahydro-8-hydroxy-2-naphthalenyl)-1-piperazinyl]pyrimidine]", "values": [
      {"measurement": "% Inhibition 1 μM D-2", "setting": "D-2 dopamine receptor", "value": 0, "unit": "%"},
      {"measurement": "inhibition at 1 µM", "setting": "[3]", "value": 91, "unit": "%"},
      {"measurement": "selectivity / separation of 5-HT1A vs D-2 binding (in words)", "setting": "[3]", "value": "most selective serotonin receptor binding"},
      {"measurement": "Ki", "setting": "[3]", "value": 109, "unit": "nM"}
    ]},
    {"compound": "COc1ccccc1N1CCN(C2CCc3cccc(OC)c3C2)CC1", "note": "(stereo not shown) [Compound 5]", "values": [
      {"measurement": "D-2 dopamine receptor binding/affinity (in words)", "setting": "D-2 dopamine receptor", "value": "relatively high dopamine receptor binding"},
      {"measurement": "% Inhibition 1 μM D-2", "setting": "D-2 dopamine receptor", "value": 72, "unit": "%"},
      {"measurement": "5-HT1A binding/affinity (in words)", "setting": "[3]", "value": "almost complete loss of serotonin receptor agonism"},
      {"measurement": "inhibition at 1 µM", "setting": "[3]", "value": 4, "unit": "%"},
      {"measurement": "selectivity / separation of 5-HT1A vs D-2 binding (in words)", "setting": "[3]", "value": "reverses the selective activity"}
    ]},
    {"compound": "COc1ccc2c(c1)CC(N1CCN(c3cccc(C(F)(F)F)c3)CC1)CC2", "note": "(stereo not shown) [Compound 6]", "values": [
      {"measurement": "D-2 dopamine receptor binding/affinity (in words)", "setting": "D-2 dopamine receptor", "value": "relative high dopamine receptor binding"},
      {"measurement": "% Inhibition 1 μM D-2", "setting": "D-2 dopamine receptor", "value": 49, "unit": "%"},
      {"measurement": "5-HT1A binding/affinity (in words)", "setting": "[3]", "value": "reduced 5-HT1A agonism"},
      {"measurement": "inhibition at 1 µM", "setting": "[3]", "value": 77, "unit": "%"},
      {"measurement": "selectivity / separation of 5-HT1A vs D-2 binding (in words)", "setting": "[3]", "value": "unacceptable separation of properties"}
    ]},
    {"compound": "COc1ccc2c(c1)CC(N1CCN(c3ccccc3OC)CC1)CC2", "note": "(stereo not shown) [Compound 7]", "values": [
      {"measurement": "D-2 dopamine receptor binding/affinity (in words)", "setting": "D-2 dopamine receptor", "value": "higher D-2 binding"},
      {"measurement": "% Inhibition 1 μM D-2", "setting": "D-2 dopamine receptor", "value": 65, "unit": "%"},
      {"measurement": "inhibition at 1 µM", "setting": "[3]", "value": 93, "unit": "%"}
    ]},
    {"compound": "COc1ccc2c(c1)CC(N1CCN(c3ncccn3)CC1)CC2", "note": "(stereo not shown) [Compound 8]", "values": [
      {"measurement": "% Inhibition 1 μM D-2", "setting": "D-2 dopamine receptor", "value": 11, "unit": "%"},
      {"measurement": "inhibition at 1 µM", "setting": "[3]", "value": 83, "unit": "%"},
      {"measurement": "selectivity / separation of 5-HT1A vs D-2 binding (in words)", "setting": "[3]", "value": "improved separation of properties with emphasis on 5-HT1A binding"}
    ]},
    {"compound": "COc1ccc2c(c1)CCC(N1CCN(c3cccc(C(F)(F)F)c3)CC1)C2", "note": "(stereo not shown) [Compound 9]", "values": [
      {"measurement": "D-2 dopamine receptor binding/affinity (in words)", "setting": "D-2 dopamine receptor", "value": "increased D- 2 binding markedly"},
      {"measurement": "% Inhibition 1 μM D-2", "setting": "D-2 dopamine receptor", "value": 65, "unit": "%"},
      {"measurement": "inhibition at 1 µM", "setting": "[3]", "value": 97, "unit": "%"}
    ]},
    {"compound": "Oc1ccc2c(c1)CCC(N1CCN(c3cccc(C(F)(F)F)c3)CC1)C2", "note": "(stereo not shown) [Compound 10]", "values": [
      {"measurement": "D-2 dopamine receptor binding/affinity (in words)", "setting": "D-2 dopamine receptor", "value": "which property was retained"},
      {"measurement": "% Inhibition 1 μM D-2", "setting": "D-2 dopamine receptor", "value": 72, "unit": "%"},
      {"measurement": "inhibition at 1 µM", "setting": "[3]", "value": 87, "unit": "%"}
    ]},
    {"compound": "COc1ccc2c(c1)CCC(N1CCN(c3ncccn3)CC1)C2", "note": "(stereo not shown) [Compound 11]", "values": [
      {"measurement": "5-HT1A binding/affinity (in words)", "setting": "[3]", "value": "marked reduction in 5-HT1A binding"},
      {"measurement": "inhibition at 1 µM", "setting": "[3]", "value": 44, "unit": "%"}
    ]},
    {"compound": "Oc1ccc2c(c1)CCC(N1CCN(c3ncccn3)CC1)C2", "note": "(stereo not shown) [Compound 12]", "values": [
      {"measurement": "D-2 dopamine receptor binding/affinity (in words)", "setting": "D-2 dopamine receptor", "value": "negligible D-2 binding"},
      {"measurement": "% Inhibition 1 μM D-2", "setting": "D-2 dopamine receptor", "value": 7, "unit": "%"},
      {"measurement": "5-HT1A binding/affinity (in words)", "setting": "[3]", "value": "negligible activity"},
      {"measurement": "inhibition at 1 µM", "setting": "[3]", "value": 15, "unit": "%"}
    ]},
    {"compound": "O=C1CC2(CCCC2)CC(=O)N1CCCCN1CCN(c2ncccn2)CC1", "note": "[buspirone]", "values": [
      {"measurement": "5-HT1A receptor affinity of known agents (in words)", "setting": "[1]", "value": "potent affinity; also recorded: selective 5-HT1A serotonin receptor affinity"}
    ]},
    {"compound": "CC1(C)CC(=O)N(CCCCN2CCN(c3ncccn3)CC2)C(=O)C1", "note": "[gepirone]", "values": [
      {"measurement": "5-HT1A receptor affinity of known agents (in words)", "setting": "[1]", "value": "selective 5-HT1A serotonin receptor affinity"}
    ]},
    {"compound": "O=C1c2ccccc2S(=O)(=O)N1CCCCN1CCN(c2ncccn2)CC1", "note": "[ipsapirone]", "values": [
      {"measurement": "5-HT1A receptor affinity of known agents (in words)", "setting": "[1]", "value": "selective 5-HT1A serotonin receptor affinity"}
    ]}
  ]
}
